Measurements published in patent US11478476B2 (CONTERA PHARMA APS, priority 2014, dated 2022).

Tests used:
[1] = target: T1, human recombinant dopamine D4 receptor (Homo sapiens, UniProt P21917); conditions: saturating concentrations of dopamine; read-out: D4 efficacy IC50 ± SEM; cited from earlier work
T1 sequence (P21917 1-419): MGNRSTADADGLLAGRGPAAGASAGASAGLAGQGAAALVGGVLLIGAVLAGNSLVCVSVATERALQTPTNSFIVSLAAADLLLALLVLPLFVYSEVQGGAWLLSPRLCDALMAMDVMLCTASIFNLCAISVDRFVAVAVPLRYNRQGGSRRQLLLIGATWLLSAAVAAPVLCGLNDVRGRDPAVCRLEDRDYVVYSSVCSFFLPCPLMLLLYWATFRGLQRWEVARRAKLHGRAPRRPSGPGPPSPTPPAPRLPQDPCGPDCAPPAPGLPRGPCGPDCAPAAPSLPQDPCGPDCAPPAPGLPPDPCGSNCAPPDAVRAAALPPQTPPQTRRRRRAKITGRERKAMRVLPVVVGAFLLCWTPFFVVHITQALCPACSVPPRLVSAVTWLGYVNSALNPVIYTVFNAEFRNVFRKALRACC

[2] = target: human recombinant dopamine D2 receptor (Homo sapiens, UniProt P14416); conditions: read-out: D2 affinity Ki ± SEM; cited from earlier work
[3] = tested on: L-DOPA induced dyskinesia (LID) model rats; assay: L-DOPA induced AIMs in 6-OHDA lesioned LID model rats; assay type: in vivo, rat
Excerpt: Animals: 80 experimentally-naïve, male, 9 weeks old Sprague-Dawley rats at body weight of 200 to 250 g arrive at the laboratory at least 1 week prior to behavioural testing. Rats were housed in groups of n=2/cage. Animals had ad libitum access to standard rodent chow and water. Animal housing and testing rooms were maintained under controlled environmental conditions and were within close proximity of each other. Animal housing rooms were on a 12-hour light-dark cycle with lights on at 6:00 AM and maintained at 70° F./21° C. (range: 68-72° F./20-22° C.) with a humidity range of 20-40%. Testing rooms were maintained at 68-72° F. with a humidity range of 20-40%. DA (dopamine)-denervating lesions were performed by unilateral injection of 6-OHDA in the ascending nigrostriatal pathway. Rats were anesthetized with pentobarbital sodium 40 mg/kg (i.p.) and positioned in a stereotactic frame. 6-OHDA was injected into the right ascending DA bundle at the following coordinates relative to bregma and dural surface: A (anterior-posterior), L (lateral), V (dorsoventral): A −1.8, L −2.0, V −8.6, tooth bar 0.0.
The neurotoxin injections were performed at a rate of 1 ul/min, and the injection cannula is left in place for an additional 2-3 min thereafter. Two weeks after surgery, contralateral full body turns were recorded over 30 min, following s.c. injection of 0.5 mg/kg of apomorphine sulfate. The animals were placed in plastic Perspex bowls (30 cm in diameter) and the rotational behavior (360° turns) is recorded by an automated rotometer for […] after the s.c. injection of 0.5 mg/kg of apomorphine sulfate. Apomorphine (0.5 mg/kg, s.c.) induced contralateral rotation in unilateral 6-OHDA lesioned rats. 73 rats with rotations ≥180/30 min, indicating >90% DA lesion in nigrostriatal pathway, were chosen as the PD model rats for chronic L-DOPA treatment.
Starting one day after the apomorphine-induced rotation test, 6-OHDA-lesioned rats were treated with daily L-DOPA (Sigma-Aldrich, Germany) (8 mg/kg plus benserazide 15 mg/kg, s.c.) for 21 days. Rats were placed individually in transparent plastic cages without bedding material and scored every 20 min following the injection of L-DOPA for the entire time course of dyskinesias (120 min). The AIMs were classified into four subtypes according to their topographic distributions such as Locomotive, Forelimb, Axial and Orolingual behaviors. The severity of each AIM subtype was assessed by using scores from 0 to 4 (1: occasional, i.e. present less than 50% of the time; 2: frequent, i.e. present more than 50% of the time; 3: continuous, but interrupted by strong sensory stimuli; 4: continuous, not interrupted by strong sensory stimuli). In this study, rats with an AIMs≥28 were considered highly dyskinetic, while rats with an AIMs<28 either low or none-dyskinetic.
After chronic L-DOPA treatment on PD rats for 21 days, 42 LID model rats (348 g˜501 g, 15 weeks old) were successfully created with the criteria of total AIM scores (Lo+Li+AX+OI)≥28 points.
AIMs ratings were performed by an investigator who was kept unaware of the pharmacological treatment administered to each rat (experimentally blinded). In order to quantify the severity of the AIMs, rats were observed individually in their standard cages every 20th minute at 20-180 min after an injection of I-DOPA. The AIM's were classified into four subtypes:
Each of the four subtypes are scored on a severity scale from 0 to 4, where 0=absent, 1=present during less than half of the observation time, 2=present for more than half of the observation time, 3=present all the time but suppressible by external stimuli, and 4=present all the time and not suppressible by external stimuli. Axial, limb and orolingual AIMs are found to be modulated in a similar way by all the tested substances.
Rats were tested for AIMs using the sum of locomotive (LO) oraxial (AX), limb (LI), and orolingual (OL) AIM scores per testing session for statistical analyses. […]

human recombinant dopamine D2 receptor, sequence (P14416 whole entry): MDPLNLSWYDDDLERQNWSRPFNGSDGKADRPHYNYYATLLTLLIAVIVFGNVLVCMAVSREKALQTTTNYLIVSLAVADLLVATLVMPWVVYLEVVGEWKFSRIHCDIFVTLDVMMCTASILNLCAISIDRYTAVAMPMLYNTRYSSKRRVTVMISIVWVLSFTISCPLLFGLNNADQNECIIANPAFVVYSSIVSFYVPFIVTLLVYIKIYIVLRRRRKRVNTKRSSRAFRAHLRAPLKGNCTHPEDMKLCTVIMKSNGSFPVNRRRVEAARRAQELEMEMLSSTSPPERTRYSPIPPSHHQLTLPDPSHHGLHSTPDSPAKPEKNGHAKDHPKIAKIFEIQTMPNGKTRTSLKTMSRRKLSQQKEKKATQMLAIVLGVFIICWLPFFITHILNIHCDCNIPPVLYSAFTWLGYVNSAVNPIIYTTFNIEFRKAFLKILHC

In the case of `O=C1CC2(CCCC2)C(O)C(=O)N1CCCCN1CCN(c2ncccn2)CC1` (racemic) [6-OH-Busp], the IC50 [1] is listed as 0.85 ± 0.49 µM, the Ki [2] is listed as 5.39 ± 0.425 µM and the “total AIMs sum” value ([3]; Example XII, 0.3, 1 and 3 mg/kg s.c.) is listed as “dose-dependently decreased”. For the same molecule, the “AIMs of LID rats at time points” value ([3]; Example XII, 0.3, 1 and 3 mg/kg s.c., 30 to 190 min after L-DOPA injection) was “dose-dependently decreased”, the “AUC of total AIMs from 10 min to 190 min” value ([3]; Example XII, buspirone 1 mg/kg s.c., 6-OH-Busp 0.3, 1 and 3 mg/kg s.c., vs vehicle) was “dose-dependently decreased” and the “AIMs of LID rats at time points” value ([3]; Example XIII, 1 mg/kg s.c., 50 min and 70 min after L-DOPA injection) was “did not significantly decrease”. For the same molecule, the “AIMs of LID rats at time points” value ([3]; Example XIII, 3 mg/kg s.c., 50 to 190 min) was “significantly decreased” and the “AIMs of LID rats at time points” value ([3]; Example XIV, 1 mg/kg s.c. alone, 90 min and 110 min after L-DOPA injection) was “did not have significant effects”.
